target: T1, human FXR (Homo sapiens, UniProt Q96RI1); assay: transient human FXR/Gal4-luciferase reporter assay; format: cell-based; settings: Gal4-hFXR transfected HEK293 reporter cells; relative to 8 μM GW-4064
T1 construct: expressed in transfected cells; host or cells: HEK293 cells stably carrying a 5xGal4-response-element firefly luciferase reporter, transiently transfected with pcDNA3.1-Gal4-FXR
T1 sequence (Q96RI1 262-486 limits assumed): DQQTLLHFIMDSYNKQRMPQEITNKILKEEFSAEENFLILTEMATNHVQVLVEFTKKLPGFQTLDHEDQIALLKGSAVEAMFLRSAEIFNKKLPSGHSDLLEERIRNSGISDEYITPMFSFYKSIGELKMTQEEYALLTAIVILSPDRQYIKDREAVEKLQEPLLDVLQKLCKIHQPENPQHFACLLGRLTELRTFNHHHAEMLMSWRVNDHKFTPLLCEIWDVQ
Experimental: A Gal4-hFXR fusion construct reporter system was used as the primary assay to characterize compound activity. A construct including 5 copies of the Gal4 promoter response element upstream of a firefly luciferase reporter cDNA was stably expressed in HEK293 cells. This reporter cell line was maintained in Dulbecco's Modified Eagle's medium (DMEM; Gibco) supplemented with 1% penicillin-streptomycin (P/S) solution, 500 μg/mL Zeocin and 10% charcoal/dextran-treated fetal bovine serum (cs-FBS) at 37° C. in a humidified 5% CO2 atmosphere. Another plasmid was constructed in which the human cytomegalovirus promoter in the pcDNA3.1 vector directs the expression of the cDNA encoding a fusion protein comprised of the DNA binding domain from the Gal4 transcription factor fused to the ligand binding domain from human FXR.
The day prior to transfection, the reporter cells in culture are detached from the plate with trypsin and plated into a T75 flask at a sufficient density to achieve approximately 90% confluence the next morning. The transfection reagents are prepared by separately diluting 25 μg of the pcDNA3.1-Gal4-FXR plasmid into 1.87 mL of Opti-MEM (Thermo-Fisher), and 40 μL of Lipofectamine 2000 (Thermo-Fisher) into 1.87 mL of Opti-MEM, and then adding the diluted DNA solution into the diluted Lipofectamine 2000 solution and incubating at room temperature for 15-20 minutes. The mixture is further diluted with 10 mL of a solution comprised of DMEM, 10% cs-FBS, and 1% P/S immediately prior to transferring to the cells. The maintenance culture media is aspirated from the cells and the final transfection mixture is added before the cells are incubated overnight at 37° C. in a humidified 5% CO2 atmosphere. This protocol can be scaled up, and the transiently transfected cells can be cryopreserved in an assay-ready format.
For compound testing, 100 nL of the compounds (serial dilutions in DMSO) are dispensed with an Echo acoustic dispenser (Labcyte) into the wells of a Corning/Costar clear bottom 384-well white plate. The transfected cells are harvested, counted, and diluted such that 10-25,000 cells in 25 μL are plated into each well of the 384-well compound assay plate. The compound-treated cells are incubated overnight at 37° C. in a humidified 5% CO2 atmosphere.

SMILES | EC50
O=C(O)c1ccc(N2CCC3(C=C(c4c(-c5c(Cl)cccc5Cl)noc4C4CC4)C3)CC2)cc1 [Example 10, 4-(2-(5-Cyclopropyl-3-(2,6-dichlorophenyl)isoxazol-4-yl)-7-azaspiro[3.5]non-1-en-7-yl)benzoic acid] | 135 nM
CC(C)Oc1cc(C(=O)O)nc2ccc(N3CCC4(C=C(c5c(-c6ccccc6C(F)(F)F)noc5C5CC5)C4)CC3)cc12 [Example 104, 6-(2-(5-Cyclopropyl-3-(2-(trifluoromethyl)phenyl)isoxazol-4-yl)-7-azaspiro[3.5]non-1-en-7-yl)-4-isopropoxyquinoline-2-carboxylic acid] | 59 nM
CC(C)NC(=O)c1cc(F)c2nc(N3CCC4(C=C(c5c(-c6c(Cl)cncc6Cl)noc5C5CC5)C4)CC3)sc2c1 [Example 199, 2-(2-(5-Cyclopropyl-3-(3,5-dichloropyridin-4-yl)isoxazol-4-yl)-7-azaspiro[3.5]non-1-en-7-yl)-4-fluoro-N-isopropylbenzo[d]thiazole-6-carboxamide] | 431 nM
O=C(O)c1ncc(N2CCC3(C=C(c4c(-c5c(Cl)cccc5Cl)noc4C4CC4)C3)CC2)cn1 [Example 22, 5-(2-(5-Cyclopropyl-3-(2,6-dichlorophenyl)isoxazol-4-yl)-7-azaspiro[3.5]non-1-en-7-yl) pyrimidine-2-carboxylic acid] | 1500 nM
O=C(O)c1ccc2nc(N3CCC4(C=C(c5c(-c6ccccc6C(F)(F)F)noc5C5CC5)C4)CC3)cnc2c1 [Example 101, 2-(2-(5-Cyclopropyl-3-(2-(trifluoromethyl)phenyl)isoxazol-4-yl)-7-azaspiro[3.5]non-1-en-7-yl)quinoxaline-6-carboxylic acid] | 17 nM
O=C(O)c1cccc(OC2CCC3(CC2)CC(O)(c2c(-c4c(Cl)cccc4Cl)noc2C2CC2)C3)c1 (stereo not drawn) [Example 207, 3-((2-(5-Cyclopropyl-3-(2,6-dichlorophenyl)isoxazol-4-yl)-2-hydroxyspiro[3.5]nonan-7-yl)oxy)benzoic acid] | 4470 nM
CCOc1cc(C(=O)O)nc2ccc(N3CCC4(C=C(c5c(C6CCCCC6)noc5C5CC5)C4)CC3)cc12 [Example 167, 6-(2-(3-Cyclohexyl-5-cyclopropylisoxazol-4-yl)-7-azaspiro[3.5]non-1-en-7-yl)-4-ethoxyquinoline-2-carboxylic acid] | 3100 nM
O=C(O)c1cc(F)c2nc(OC3CCC4(C=C(c5c(-c6c(Cl)cccc6Cl)noc5C5CC5)C4)CC3)sc2c1 (stereo not drawn) [Example 209, 2-((2-(5-Cyclopropyl-3-(2,6-dichlorophenyl)isoxazol-4-yl)spiro[3.5]non-1-en-7-yl)oxy)-4-fluorobenzo[d]thiazole-6-carboxylic acid] | 1280 nM
CC(C)c1onc(-c2c(Cl)cccc2Cl)c1C1=CC2(CCN(c3ccc4cc(C(=O)O)nnc4c3)CC2)C1 [Example 148, 7-(2-(3-(2,6-Dichlorophenyl)-5-isopropylisoxazol-4-yl)-7-azaspiro[3.5]non-1-en-7-yl) cinnoline-3-carboxylic acid] | 548 nM
O=C(O)c1cc(C(F)(F)F)c2cc(N3CCC4(C=C(c5c(-c6c(F)cncc6F)noc5C5CC5)C4)CC3)ccc2n1 [Example 93, 6-(2-(5-Cyclopropyl-3-(3,5-difluoropyridin-4-yl)isoxazol-4-yl)-7-azaspiro[3.5]non-1-en-7-yl)-4-(trifluoromethyl)quinoline-2-carboxylic acid] | 511 nM
O=C(O)c1cc(F)c2nc(N3CCC4(CC3)CC(c3c(C(F)F)cnn3-c3ccccc3C(F)(F)F)C4)sc2c1 [Example 215, 2-(2-(4-(Difluoromethyl)-1-(2-(trifluoromethyl)phenyl)-1H-pyrazol-5-yl)-7-azaspiro[3.5]nonan-7-yl)-4-fluorobenzo[d]thiazole-6-carboxylic acid] | 995 nM
Cn1c(C(=O)O)cc2cc(N3CCC4(C=C(c5c(-c6ccccc6OC(F)(F)F)noc5C5CC5)C4)CC3)ncc21 [Example 172, 5-(2-(5-Cyclopropyl-3-(2-(trifluoromethoxy)phenyl)isoxazol-4-yl)-7-azaspiro[3.5]non-1-en-7-yl)-1-methyl-1H-pyrrolo[2,3-c]pyridine-2-carboxylic acid] | 2370 nM
O=C(O)c1cc2ccc(N3CCC4(C=C(c5c(-c6c(F)cccc6F)noc5C5CC5)C4)CC3)cc2nn1 [Example 79, 7-(2-(5-Cyclopropyl-3-(2,6-difluorophenyl)isoxazol-4-yl)-7-azaspiro[3.5]non-1-en-7-yl)cinnoline-3-carboxylic acid] | 733 nM
O=C(O)c1cc(C(F)(F)F)c2cc(N3CCC4(C=C(c5c(-c6c(Cl)cc(F)cc6Cl)noc5C5CC5)C4)CC3)ccc2n1 [Example 86, 6-(2-(5-Cyclopropyl-3-(2,6-dichloro-4-fluorophenyl)isoxazol-4-yl)-7-azaspiro[3.5]non-1-en-7-yl)-4-(trifluoromethyl)quinoline-2-carboxylic acid] | 68 nM
COc1cc(C(=O)O)nc2ccc(N3CCC4(C=C(c5c(C6CCCCC6)noc5C5CC5)C4)CC3)cc12 [Example 147, 6-(2-(3-Cyclohexyl-5-cyclopropylisoxazol-4-yl)-7-azaspiro[3.5]non-1-en-7-yl)-4-methoxyquinoline-2-carboxylic acid] | 1060 nM
O=C(O)c1cnc(N2CCC3(C=C(c4c(-c5c(Cl)cccc5Cl)noc4C4CC4)C3)CC2)c(F)c1 [Example 28, 6-(2-(5-Cyclopropyl-3-(2,6-dichlorophenyl)isoxazol-4-yl)-7-azaspiro[3.5]non-1-en-7-yl)-5-fluoronicotinic acid] | 453 nM
CCOC(=O)c1cc(F)c2nc(N3[C@@H]4CC[C@H]3C[C@@]3(COC(c5c(-c6c(Cl)cccc6Cl)noc5C5CC5)O3)C4)sc2c1 (stereo partly drawn) [Example 40, Ethyl 2-((1R,3S,5S)-2′-(5-cyclopropyl-3-(2,6-dichlorophenyl)isoxazol-4-yl)-8-azaspiro[bicyclo[3.2.1]octane-3,4′-[1,3]dioxolan]-8-yl)-4-fluorobenzo[d]thiazole-6-carboxylate] | 3400 nM
C[Si](C)(C)CCOCn1cc(C(=O)O)c2ccc(N3CCC4(C=C(c5c(-c6c(Cl)cccc6Cl)noc5C5CC5)C4)CC3)cc21 [Example 131, 6-(2-(5-Cyclopropyl-3-(2,6-dichlorophenyl)isoxazol-4-yl)-7-azaspiro[3.5]non-1-en-7-yl)-1-((2-(trimethylsilyl)ethoxy)methyl)-1H-indole-3-carboxylic acid] | 445 nM
O=C(O)c1cnc(N2CCC3(C=C(c4c(-c5c(Cl)cccc5Cl)noc4C4CC4)C3)CC2)nc1 [Example 118, 2-(2-(5-Cyclopropyl-3-(2,6-dichlorophenyl)isoxazol-4-yl)-7-azaspiro[3.5]non-1-en-7-yl)pyrimidine-5-carboxylic acid] | 171 nM
O=C(O)c1ccc2nc(N3CCC4(C=C(c5c(-c6c(Cl)cccc6Cl)noc5C5CC5)C4)CC3)cnc2c1 [Example 100, 2-(2-(5-cyclopropyl-3-(2,6-dichlorophenyl)isoxazol-4-yl)-7-azaspiro[3.5]non-1-en-7-yl)quinoxaline-6-carboxylic acid] | 33 nM
Cc1cc(N2CCC3(C=C(c4c(-c5c(Cl)cccc5Cl)noc4C4CC4)C3)CC2)ncc1C(=O)O [Example 115, 6-(2-(5-Cyclopropyl-3-(2,6-dichlorophenyl)isoxazol-4-yl)-7-azaspiro[3.5]non-1-en-7-yl)-4-methylnicotinic acid] | 132 nM
O=C(O)c1cccc2nc(N3CCC4(C=C(c5c(-c6c(Cl)cncc6Cl)noc5C5CC5)C4)CC3)ccc12 [Example 65, 2-(2-(5-Cyclopropyl-3-(3,5-dichloropyridin-4-yl)isoxazol-4-yl)-7-azaspiro[3.5]non-1-en-7-yl)quinoline-5-carboxylic acid] | 65 nM
O=C(O)c1cccc(N2CCC3(CC2)COC(c2c(-c4ccccc4OC(F)(F)F)noc2C2CC2)O3)n1 (stereo not drawn) [Example 44, 6-(2-(5-cyclopropyl-3-(2-(trifluoromethoxy)phenyl)isoxazol-4-yl)-1,3-dioxa-8-azaspiro[4.5]decan-8-yl)picolinic acid] | 5000 nM
O=C(O)c1ccc2nc(N3CCC4(C=C(c5c(-c6c(Cl)cccc6Cl)noc5C5CC5)C4)CC3)sc2c1 [Example 24, 2-(2-(5-Cyclopropyl-3-(2,6-dichlorophenyl)isoxazol-4-yl)-7-azaspiro[3.5]non-1-en-7-yl)benzo[d]thiazole-6-carboxylic acid] | 17 nM

Source: patent US11078198B2 (BRISTOL-MYERS SQUIBB COMPANY, priority 2017, dated 2021)
